Experiments:
spleen cells = experiment: Lymphocyte transformation induced by ConA; format: in vivo, NIH mice; details: 0.02 g/kg
Protocol: 80 NIH mice, half male and half female, were divided into 8 groups randomly and drenched with the correspondent medicines once a day for 10 days. 24 hours after the last administration, all the mice were killed to sample the spleen cells aseptically. Then the samples were washed by the Hank's liquor for 2 times and nonserum RPMI1640 liquor for 1 time. Then the clear samples were adjusted to the 2×10^6/ml cell suspension with 5% FCS-RPMI liquor. The 96-hole flat bottom cell culturing batten was added with the cell suspension on the quantity of 100 μl/hole. Each sample was cultured with 3 copies. 2 holes were added in 2 ng ConA each as the stimulating reagent. The other hole was not added in the ConA and kept as the control hole. The batten was cultured in 5% CO2 at 37° C. for 72 hours. 14 hours before the end of the culture, each hole was added in 3H-TdR 0.1μ Ci. The cells were harvested by the multihead cell harvesting instrument and measured the cpm value. The average value was adopted as the sample's cpm value. The average value and the stimulating index of the different groups were compared directly. The stimulating index was calculated as following: […]

IL-1 = IL-1 of abdominal macrophages from dosed mice; format: in vivo, NIH mice; details: 0.02 g/kg, 10 days
Protocol: 70 NIH mice, 18-22 g weight, half male and half female, were divided into 7 groups at random. All the groups were drenched with the correspondent medicines (fengshiping and the other medicines). The medicines were drenched once a day for 10 days. 24 hours after the last administration, all the mice were killed and sampled the macrophage and spleen cells from the abdominal carvity. The IL-1 and IL-6 in the samples were measured.
The macrophages in the abdominal carvity were sampled in the asepsis condition. Then the samples were washed by the Hank's liquor for 2 times and nonserum RPMI1640 liquor for 1 time. Then the clear samples were adjusted to the 4×10^6/ml cell suspension with 5% FCS-RPMI liquor. 1 ml of the suspension was added to the test tube and cultured at 37° C. for 1 hour. The unadherent cells were abandoned. Then the cultured liquor was added with 5% FCS-RPMI 1640 and LPS (10 ng/ml) to culture. The cells cultured in 5% CO2 at 37° C. for 72 hours. During the course, the cultured cells were freezed and thawed for several times. The final product was saved at 4° C. The C57 mice were sampled the thymus in the asepsis condition. […]
100 μl supernate separated from the frost thawing liquor and 100 μl cell suspension of thymus were added into the 96-hole flat bottom cell-culture batten. […] The cultured cells were collected with multihead cell-harvesting apparatus and measured the cpm value. […]

CD4, CD8 cells = experiment: CD4 and CD8 cells of the spleen; format: in vivo, ICR mice; details: 0.02 g/kg
Protocol: (§1) The experiment was same to 5.1. 24 hours after the last administration, the spleen cell samples were made into the 2×10^8/ml cell suspension with 5% FCS-RPIM1640. The quantity of CD4, CD8, NK cells and the rate CD4/CD8 were measured on the usural method.
The spleen cell suspension 50 μl was added on the glass to made the cell smear. The glass had been coated by the polylysine. The T cell of the mouse was set as the positive control sample. The cell smear was enveloped by the serum of the normal mouse after it was fixed by the acetone. Then the enveloped sample was added with the antibody of CD4 and CD8 which were marked by the hominine biotin. It was incubated at 37° C. for 2 hours. Then the sample was added with the avidin labeled by enzyme and put still for 10 min. After added with the substrate for 10 min, the mixed sample was washed and dyed with the hematoxylin for 2 min. Then the sample was dyhidrated with the grade-alcohol and enveloped with gelatin-glycetrol. 200 cells in the smear were chosen as the research target under the high power microscope. [formula]

hemolysin antibody [1] = experiment: Hemolysin antibody caused by chick RBC, NIH mouse; format: in vivo; details: 0.02 g/kg, 0˜7
Protocol: (§2) 190 mice, 18-22 g weight, half male and half female, were divided into 19 groups. Each mouse was immunized with 5% CRBC solution 0.2 ml. The Fengshiping solutions were drenched at the different times. 7 days after the immunization, all the mice were sampled the blood from the eyes. Then the blood samples were diluted and measured the level of the hemolysin antibody.

DTH caused by DNFB = experiment: Delayed hypersensitivity (DTH) caused by DNFB in the mouse ear; format: in vivo, NIH mouse
Protocol: Each mouse was led to hypersensitivity reaction by using the 1% DNFB acetone solution on the dosage of 0.025 ml at the right place of the abdomen where the pilus had been cut yet. Using the same solution on the same place was to enhance the hypersensitivity reaction on the third day. On the fifth day, all the mice were smeared with the 1% DNFB edible oil solution at the mice's right ears on the dosage of 0.01 ml each. 24 hours later, all the mice were killed. The mouse's 2 ears were weighted by the torsion balance and the difference of the 2 ears was recorded as the DTH degree caused by the DNFB. The experiment was carried out on the different immune and administration processes.
The immune and administration processes is as following: [drawing 1]

hemolysin antibody [2] = experiment: Hemolysin antibody caused by chick RBC, ICR mouse; format: in vivo; details: 0˜7
Protocol: as §2

NK cell = NK cell activity (Yack-1 target cells); format: in vivo, ICR mice; details: 0.02 g/kg
Protocol: as §1
The preparation of the EC cell: The spleen cells were sampled in the asepsis condition. Then the samples were washed by the Hank's liquor for 2 times and nonserum RPMI1640 liquor for 1 time. Then the clear samples were adjusted to the 2×10^8/ml cell suspension with 5% FCS-RPMI liquor. This cell suspension was used as the EC.
The preparation of the TC cell: The Yack-1 cells, which were sensitive to the mouse NK cell and on the logarithmic growth phase, were adjusted to the 4×10^4/ml cell suspension. It was the TC.
Measurement: EC and TC, 100 μl each were added in the 96-hole flat bottom cell culturing batten. Each sample was cultured with 3 copies and set 2 control samples: EC and TC. […] The samples were cultured in 5% CO2 at 37° C. for 24 hours. 6 hours before the end of the culturing, the samples were centrifuged and sucked out 110 μl supernate each hole. And then the holes were added in the MTT 10 μl. After put at 37° C. for 3 hours, the mixed samples were measured the OD value at the wavelength of 570 nm and 630 nm. The OD of each hole=OD570 nm-OD630 nm.

[3] = 0.05 g/kg, administration day −2˜0
[4] = 0.05 g/kg, administration day −2˜2
[5] = 0.1 × 3 g/kg, 0, 2, 4 day once a day

## O=P1(N(CCCl)CCCl)NCCCO1 (stereo not drawn) [cyclophosphane]
Spleen cells
  Stimulating index: 13.66 ± 2.28
  cpm: 9922 ± 1145 cpm
IL-1
  IL-1: 44.5 ± 7.7 ng/mL
CD4, CD8 cells
  CD4: 11.50 ± 2.50 %
  CD4/CD8: 2.91 ± 0.53
  CD8: 4.10 ± 1.20 %
Hemolysin antibody [1]
  Hemolysin value: 35.0 ± 12.0
  Inhibiting percent: 79.3%
DTH caused by DNFB; [3]
  Percent of ear swelling: 37.47 ± 6.71
  Percent of inhibition: 11.7%
DTH caused by DNFB; [4]
  Percent of ear swelling: 39.40 ± 10.78
  Percent of inhibition: 8.1%
DTH caused by DNFB; [5]
  Percent of ear swelling: 23.00 ± 7.65
  Percent of inhibition: 40.3%
DTH caused by DNFB; 0.25 g/kg, −3 d
  Percent of ear swelling: 41.84 ± 7.75
  Percent of inhibition: −8.7%
Hemolysin antibody [2]; Table 3.2, 0.02 g/kg
  Hemolysin value: 27.80 ± 6.60
  Inhibiting percent: 77.9%
Hemolysin antibody [2]; Table 3.3, 0.02 g/kg
  Hemolysin value: 25.0 ± 4.0
  Inhibiting percent: 90.2%
NK cell
  NK: 23.10 ± 3.66 ^

From US20050220906A1, “Pharmaceutical composition for treating rheumatism and the preparation thereof” (priority 2002, published 2005)
